Assay results published in US20230081426A1, “COMPOUNDS AND METHODS FOR KRAS MODULATION AND INDICATIONS THEREFOR” (Plexxikon Inc., priority 2020, published 2023).

Experiments:
[1] = biological target: T1, G12D-mutant human KRAS (amino acid residues 1-188) (Homo sapiens, UniProt P01116, G12D); test: KRAS Binding Disruption Assay (AlphaScreen; biotinylated KRpep-2d analogue or RAF1-RBD), G12D; conditions: KRAS G12D; geometric mean; read-out: KRAS GMean IC50 (uM) MUTATION: G12D
T1 construct: G12D or G12C-mutant human KRAS (amino acid residues 1-188) with FLAG tag; made in house; host or cells: E. coli
Summary of the method: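 Mutant KRAS (5-20 nM) incubated 1 h at 25° C with test compound and 5-20 nM biotinylated KRpep-2d analogue or RAF1-RBD in 20 mM HEPES pH 7.5, 100 mM NaCl, 5 mM MgCl2, 0.01% Tween-20, 0.01% BSA.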

[2] = biological target: T2, G12V-mutant human KRAS (amino acid residues 1-188) (Homo sapiens, UniProt P01116, G12V); test: KRAS Binding Competition Assay (AlphaScreen; biotinylated KRpep-2d analogue), G12V; conditions: geometric mean, read-out: KRAS GMean IC50 (uM) MUTATION: G12V
T2 construct: G12V-mutant human KRAS (amino acid residues 1-188) with FLAG tag was purified from E. coli; made in house; host or cells: E. coli

Compound	IC50 [1]	IC50 [2]
CN(C)c1ccc(/C=C/c2nc(N3[C@@H]4CC[C@H]3CNC4)c3ccc(-c4cc(O)cc5ccccc45)cc3n2)cc1 [P-0244, 4-(4-((1R,5S)-3,8-diazabicyclo[3.2.1]octan-8-yl)-2-((E)-4-(dimethylamino)styryl)quinazolin-7-yl)naphthalen-2-ol]	10 to 100 µM	10 to 100 µM
CN(C)c1ccc(CCc2nc(N3C[C@H]4CC[C@@H](C3)N4)c3ccc(-c4cc(O)cc5ccccc45)cc3n2)cc1 [P-0242, 4-(4-((1R,5S)-3,8-diazabicyclo[3.2.1]octan-3-yl)-2-(4-(dimethylamino)phenethyl)quinazo-lin-7-yl)naphthalen-2-ol]	0.0001 to 10 µM	0.0001 to 10 µM
Oc1cc(-c2ccc3c(N4C[C@H]5CC[C@@H](C4)N5)nc(OCC4CCC4O)nc3c2F)c2ccccc2c1 (stereo partly drawn) [P-0617, 4-(4-((1R,5S)-3,8-diazabicyclo[3.2.1]octan-3-yl)-8-fluoro-2-((2-hydroxycyclobutyl)methoxy)quinazolin-7-yl)naphthalen-2-ol]	0.0001 to 10 µM	10 to 100 µM
CN1CCC[C@H]1COc1nc(N2C[C@H]3CC[C@@H](C2)N3)c2cc(Cl)c(-c3c[nH]c4ccccc34)c(F)c2n1 [P-0318, 4-((1R,5S)-3,8-diazabicyclo[3.2.1]octan-3-yl)-6-chloro-8-fluoro-7-(1H-indol-3-yl)-2-(((S)-1-methylpyrrolidin-2-yl)methoxy)quinazoline]	0.0001 to 10 µM	10 to 100 µM
CNCC(=O)N1[C@@H]2CC[C@H]1CN(c1nc(OC[C@@H]3CCCN3C)nc3c(F)c(-c4cc(O)cc5ccccc45)ccc13)C2 [P-0426, 1-((1R,5S)-3-(8-fluoro-7-(3-hydroxynaphthalen-1-yl)-2-(((S)-1-methylpyrrolidin-2-yl)methoxy)quinazolin-4-yl)-3,8-diazabicyclo[3.2.1]octan-8-yl)-2-(methylamino)ethan-1-one]	0.0001 to 10 µM	10 to 100 µM
CN1CCC[C@H]1COc1nc(N2C[C@H]3CC[C@@H](C2)N3)c2ccc(Nc3n[nH]c4c(F)cccc34)c(F)c2n1 [P-0438, 4-((1R,5S)-3,8-diazabicyclo[3.2.1]octan-3-yl)-8-fluoro-N-(7-fluoro-1H-indazol-3-yl)-2-(((S)-1-methylpyrrolidin-2-yl)methoxy)quinazolin-7-amine]	10 to 100 µM	10 to 100 µM
Fc1c(-c2c[nH]c3ccc(Cl)c(F)c23)c(Cl)cc2c(N3C[C@H]4CC[C@@H](C3)N4)nc(OCC34CCCN3CCC4)nc12 [P-0466, 4-((1R,5S)-3,8-diazabicyclo[3.2.1]octan-3-yl)-6-chloro-7-(5-chloro-4-fluoro-1H-indol-3-yl)-8-fluoro-2-((tetrahydro-1H-pyrrolizin-7a(5H)-yl)methoxy)quinazoline]	0.0001 to 10 µM	10 to 100 µM
CN1CCC[C@H]1COc1nc(N2C[C@H]3CC[C@@H](C2)N3CC(=O)Nc2ccccn2)c2ccc(-c3cc(O)cc4ccccc34)c(F)c2n1 [P-0475, 2-((1R,5S)-3-(8-fluoro-7-(3-hydroxynaphthalen-1-yl)-2-(((S)-1-methylpyrrolidin-2-yl)methoxy)quinazolin-4-yl)-3,8-diazabicyclo[3.2.1]octan-8-yl)-N-(pyridin-2-yl)acetamide]	0.0001 to 10 µM	10 to 100 µM
Oc1cc(-c2ccc3c(N4[C@@H]5CC[C@H]4CNC5)nc(Cc4cccnc4)nc3c2)c2ccccc2c1 [P-0240, 4-(4-((1R,5S)-3,8-diazabicyclo[3.2.1]octan-8-yl)-2-(pyridin-3-ylmethyl)quinazolin-7-yl)naphthalen-2-ol]	0.0001 to 10 µM	0.0001 to 10 µM
CN1CCCC1COc1nc(N2C[C@H]3CC[C@@H](C2)N3C(=O)NCC(N)=O)c2ccc(-c3cc(O)cc4ccccc34)c(F)c2n1 (stereo partly drawn) [P-0423, (1R,5S)-N-(2-amino-2-oxoethyl)-3-(8-fluoro-7-(3-hydroxynaphthalen-1-yl)-2-((1-methylpyrrolidin-2-yl)methoxy)quinazolin-4-yl)-3,8-diazabicyclo[3.2.1]octane-8-carboxamide]	0.0001 to 10 µM	0.0001 to 10 µM
CN1CCC(Oc2nc(N3C[C@H]4CC[C@@H](C3)N4)c3cc(Cl)c(-c4c(O)cccc4F)c(F)c3n2)CC1 [P-0329, 2-(4-((1R,5S)-3,8-diazabicyclo[3.2.1]octan-3-yl)-6-chloro-8-fluoro-2-((1-methylpiperidin-4-yl)oxy)quinazolin-7-yl)-3-fluorophenol]	0.0001 to 10 µM	10 to 100 µM
C[C@H](O)C(=O)N1[C@@H]2CC[C@H]1CN(c1nc(OC[C@@H]3CCCN3C)nc3c(F)c(-c4cc(O)cc5ccccc45)ccc13)C2 [P-0394, (S)-1-((1R,5S)-3-(8-fluoro-7-(3-hydroxynaphthalen-1-yl)-2-(((S)-1-methylpyrrolidin-2-yl)methoxy)quinazolin-4-yl)-3,8-diazabicyclo[3.2.1]octan-8-yl)-2-hydroxypropan-1-one]	0.0001 to 10 µM	0.0001 to 10 µM
O=C(N[C@@H]1C[C@H]2CC[C@@H]1O2)N1[C@@H]2CC[C@H]1CN(c1nc(OCC34CCCN3CCC4)nc3cc(-c4cc(O)cc5ccccc45)ccc13)C2 [P-0140, (1R,5S)-N-((1S,2R,4R)-7-oxabicyclo[2.2.1]heptan-2-yl)-3-(7-(3-hydroxynaphthalen-1-yl)-2-((tetrahydro-1H-pyrrolizin-7a(5H)-yl)methoxy)quinazolin-4-yl)-3,8-diazabicyclo[3.2.1]octane-8-carboxamide]	0.0001 to 10 µM	0.0001 to 10 µM
CN1CCC[C@H]1COc1nc(N2CC3COCC(C2)N3C(=O)NC2CCOC2)c2ccc(-c3cc(O)cc4ccccc34)c(F)c2n1 (mixture of isomers) [P-0251, rac-7-(8-fluoro-7-(3-hydroxynaphthalen-1-yl)-2-(((R)-1-methylpyrrolidin-2-yl)methoxy)quinazolin-4-yl)-N-(tetrahydrofuran-3-yl)-3-oxa-7,9-diazabicyclo[3.3.1]nonane-9-carboxamide]	0.0001 to 10 µM	0.0001 to 10 µM
Fc1cc2c(N3C[C@H]4CC[C@@H](C3)N4)nc(OCC34CCCN3CCC4)nc2c(F)c1-c1c[nH]c2ccccc12 [P-0372, 4-((1R,5S)-3,8-diazabicyclo[3.2.1]octan-3-yl)-6,8-difluoro-7-(1H-indol-3-yl)-2-((tetrahydro-1H-pyrrolizin-7a(5H)-yl)methoxy)quinazoline]	0.0001 to 10 µM	10 to 100 µM

The remaining lines, values ahead:

IC50 [1]	IC50 [2]	Compound
100 to 1000 µM	100 to 1000 µM	CN1CCC[C@H]1COc1nc(N2[C@@H]3CC[C@H]2CNC3)c2ccc(-c3cccc(O)c3)cc2n1 [P-0285, 3-(4-((1R,5S)-3,8-diazabicyclo[3.2.1]octan-8-yl)-2-(((S)-1-methylpyrrolidin-2-yl)methoxy)quinazolin-7-yl)phenol]
10 to 100 µM	10 to 100 µM	CN1CCC[C@H]1COc1nc(N2[C@@H]3CC[C@H]2CN(C(=O)CCC2CCCCN2)C3)c2ccc(-c3cc(O)cc4ccccc34)cc2n1 (stereo partly drawn) [P-0191, 1-((1R,5S)-8-(7-(3-hydroxynaphthalen-1-yl)-2-(((S)-1-methylpyrrolidin-2-yl)methoxy)quinazolin-4-yl)-3,8-diazabicyclo[3.2.1]octan-3-yl)-3-(piperidin-2-yl)propan-1-one]
10 to 100 µM	10 to 100 µM	CN1CCC[C@H]1COc1nc(N2[C@@H]3CC[C@H]2CNC3)c2ccc(-c3cccc4ccccc34)cc2n1 [P-0257, 4-((1R,5S)-3,8-diazabicyclo[3.2.1]octan-8-yl)-2-(((S)-1-methylpyrrolidin-2-yl)methoxy)-7-(naphthalen-1-yl)quinazoline]
10 to 100 µM	10 to 100 µM	CN1CCC[C@H]1COc1nc(N2[C@@H]3CC[C@H]2CN(C(=O)CC(C)(C)O)C3)c2ccc(-c3cc(O)cc4ccccc34)cc2n1 [P-0311, 3-hydroxy-1-((1R,5S)-8-(7-(3-hydroxynaphthalen-1-yl)-2-(((S)-1-methylpyrrolidin-2-yl)methoxy)quinazolin-4-yl)-3,8-diazabicyclo[3.2.1]octan-3-yl)-3-methylbutan-1-one]
10 to 100 µM	10 to 100 µM	CN(C)C(=O)CCc1nc(N2[C@@H]3CC[C@H]2CNC3)c2ccc(-c3cc(O)cc4ccccc34)cc2n1 [P-0199, 3-(4-((1R,5S)-3,8-diazabicyclo[3.2.1]octan-8-yl)-7-(3-hydroxynaphthalen-1-yl)quinazolin-2-yl)-N,N-dimethylpropanamide]
10 to 100 µM	0.0001 to 10 µM	CN1CCC[C@H]1COc1nc(N2[C@@H]3CC[C@H]2CN(C(=O)Nc2ccn[nH]2)C3)c2ccc(-c3cc(O)cc4ccccc34)cc2n1 [P-0271, (1R,5S)-8-(7-(3-hydroxynaphthalen-1-yl)-2-(((S)-1-methylpyrrolidin-2-yl)methoxy)quinazolin-4-yl)-N-(1H-pyrazol-5-yl)-3,8-diazabicyclo[3.2.1]octane-3-carboxamide]
100 to 1000 µM	100 to 1000 µM	CN1CCC[C@H]1COc1nc(N2[C@@H]3CC[C@H]2CN(C2CNC2)C3)c2ccc(-c3cc(O)cc4ccccc34)cc2n1 [P-0226, 4-(4-((1R,5S)-3-(azetidin-3-yl)-3,8-diazabicyclo[3.2.1]octan-8-yl)-2-(((S)-1-methylpyrrolidin-2-yl)methoxy)quinazolin-7-yl)naphthalen-2-ol]
0.0001 to 10 µM	10 to 100 µM	CN1CCC[C@H]1COc1nc(N2CC3CCCC2CN3)c2ccc(-c3cc(O)cc4ccccc34)c(F)c2n1 (stereo partly drawn) [P-0296, 4-(4-(6,8-diazabicyclo[3.2.2]nonan-6-yl)-8-fluoro-2-(((S)-1-methylpyrrolidin-2-yl)methoxy)quinazolin-7-yl)naphthalen-2-ol]
0.0001 to 10 µM	10 to 100 µM	CN1CCCC[C@H]1COc1nc(N2C[C@H]3CC[C@@H](C2)N3)c2ccc(-c3cc(O)cc4ccccc34)cc2n1 [P-0079, 4-(4-((1R,5S)-3,8-diazabicyclo[3.2.1]octan-3-yl)-2-(((S)-1-methylpiperidin-2-yl)methoxy)quinazolin-7-yl)naphthalen-2-ol]
